From ChEMBL document CHEMBL4024712, “Synthesis, stability and mechanistic studies of potent anticryptococcal hexapeptides” (Eur J Med Chem, 2017) come the findings set out here.

Data set [1] concerns Candida albicans. The data set can be described thus: Antifungal activity against Candida albicans by broth microdilution method. It counts as functional. In general terms: Dilution methods test growth across graded concentrations, often in twofold steps.
Data set [2] has as its system Lipid bilayer. The data set can be described thus: Binding affinity to EYPC/EYPG small unilamellar vesicles at 0.1 uM by tryptophan fluorescence quenching assay.
Data set [3] deals with Cryptococcus neoformans. Nature of the data set: Induction of cell lysis in Cryptococcus neoformans ATCC 90113 biofilm assessed as loss of cell wall at MIC after 1 hr by photungstic acid/ammonium molybdate/uranyl acetatebased scanning based transmission electron microscopic method. Type of data set: functional.
The next data set deals with Vero. Nature of the data set: Cytotoxicity against African green monkey Vero cells up to 10 ug/ml after 48 hrs by neutral red dye based assay. It counts as cell-based. Particulars: chlorocebus sabaeus.
The subject of a further data set is Nakaseomyces glabratus. The data set can be described thus: Antifungal activity against Candida glabrata ATCC 90030 after 18 to 24 hrs by Alamar blue assay. Type of data set: functional.
Data set [4] has as its system Staphylococcus aureus. The data set can be described thus: Anti-bacterial activity against methicillin-resistant Staphylococcus aureus ATCC 33591 by CLSI method. It counts as functional. Particulars: Staphylococcus aureus, ATCC 33591; read-out: IC50.
Data set [5] concerns Lipid bilayer. Nature of the data set: Binding affinity to EYPC/cholesterol small unilamellar vesicles at 0.1 uM by tryptophan fluorescence quenching assay. Type of data set: ADME.
Data set [6] deals with Cryptococcus neoformans. Nature of the data set: Induction of cell lysis in Cryptococcus neoformans ATCC 90113 biofilm assessed as corrugated cells at MIC after 1 hr by osmium tetroxide staining based scanning electron microscopic method. It counts as functional.
Data set [7] relates to Candida albicans. Nature of the data set: Antifungal activity against Candida albicans ATCC 90028 after 18 to 24 hrs by Alamar blue assay. It counts as functional. (In general: Alamar Blue is a resazurin reagent that responds to reducing activity.)
Data set [8] relates to Escherichia coli. The data set can be described thus: Anti-bacterial activity against Escherichia coli ATCC 35218 by CLSI method. Type of data set: functional. The following applies: Escherichia coli, ATCC 35218; for IC50: read-out: IC50.
A further data set relates to Aspergillus fumigatus. The data set can be described thus: Antifungal activity against Aspergillus fumigatus ATCC 90906 after 68 to 72 hrs by Alamar blue assay. It counts as functional.
A further data set has as its system Pseudomonas aeruginosa. Nature of the data set: Anti-bacterial activity against Pseudomonas aeruginosa ATCC 27853 by CLSI method. It counts as functional.
In data set [9] the test system is Staphylococcus aureus. Nature of the data set: Anti-bacterial activity against Staphylococcus aureus ATCC 29213 by CLSI method. Type of data set: functional. The following applies: Staphylococcus aureus, ATCC 29213; read-out: IC50.
Data set [10] deals with Mycobacterium intracellulare. The data set can be described thus: Anti-bacterial activity against Mycobacterium intracellulare ATCC 23068 after 68 to 72 hrs by Alamar blue assay. It counts as functional, cell-based.
For data set [11], the system named is Pichia kudriavzevii. The data set can be described thus: Antifungal activity against Candida krusei ATCC 6258 after 18 to 24 hrs by Alamar blue assay. Type of data set: functional.
Data set [12] relates to Cryptococcus neoformans. The data set can be described thus: Fungicidal activity against Cryptococcus neoformans ATCC 90113 after 68 to 72 hrs by Alamar blue assay. Type of data set: functional.
The subject of data set [13] is Cryptococcus neoformans. The data set can be described thus: Induction of cell lysis in Cryptococcus neoformans ATCC 90113 biofilm assessed as cell perturbation at MIC after 1 hr by osmium tetroxide staining based scanning electron microscopic method. It counts as functional.
Data set [14] concerns Cryptococcus neoformans. The data set can be described thus: Antifungal activity against Cryptococcus neoformans ATCC 90113 after 68 to 72 hrs by Alamar blue assay. It counts as functional.
The subject of data set [15] is Pichia kudriavzevii. Nature of the data set: Fungicidal activity against Candida krusei ATCC 6258 after 18 to 24 hrs by Alamar blue assay. Type of data set: functional.
Data set [16] relates to Lipid bilayer. Nature of the data set: Disruption of EYPC/EYPG small unilamellar vesicles assessed as disfigured liposomes at 0.5 ug/ml by phosphotungstic acid staining based transmission electron microscopic method.
For data set [17], the system named is Cryptococcus neoformans. The data set can be described thus: Induction of cell lysis in Cryptococcus neoformans ATCC 90113 biofilm assessed as formation of holes at MIC after 1 hr by osmium tetroxide staining based scanning electron microscopic method. Type of data set: functional.
Data set [18] relates to Cryptococcus neoformans. Nature of the data set: Induction of cell lysis in Cryptococcus neoformans ATCC 90113 biofilm assessed as formation of pits at MIC after 1 hr by photungstic acid/ammonium molybdate/uranyl acetatebased scanning based transmission electron microscopic method. It counts as functional.
Data set [19] relates to Escherichia coli. The data set can be described thus: Bactericidal activity against Escherichia coli ATCC 35218 by CLSI method. It counts as functional.
The test system of data set [20] is Lipid bilayer. The data set can be described thus: Disruption of EYPC/EYPG small unilamellar vesicles assessed as lysed liposomes at 0.5 ug/ml by phosphotungstic acid staining based transmission electron microscopic method.
Data set [21] is described as follows: Proteolytic stability assessed as trypsin (unknown origin)-mediated compound hydrolysis at compound to trypsin ratio of 0.5 to […] measured after 24 hrs by RP-HPLC method. It counts as ADME. Particulars: human.
The subject of data set [22] is Lipid bilayer. Nature of the data set: Disruption of EYPC/cholesterol small unilamellar vesicles at 0.5 ug/ml by phosphotungstic acid staining based transmission electron microscopic method. Type of data set: ADME.
The nature of data set [23]: Selectivity index ratio of cytotoxic concentration against African green monkey Vero cells to IC50 for Cryptococcus neoformans ATCC 90113. It counts as toxicity. Particulars: read-out: Selectivity Index.

≈ marks a conversion by molar mass, not a printed value. Calls of active or inactive are those of the source. Non-standard residues stand in square brackets, D forms with d. Residues, ends and D or L forms follow the SMILES beside them. Phe(4-NH2) = Nc1ccc(C[C@H](N)C(=O)O)cc1; Phe(4-Me) = Cc1ccc(C[C@H](N)C(=O)O)cc1; Orn = NCCC[C@H](N)C(=O)O Some results are limits rather than exact numbers.

Usually IC50 stands for the point on the concentration scale where inhibition reaches its midpoint. Turning to `NCCCC[C@H](NC(=O)[C@@H](Cc1ccccc1)NC(=O)[C@H](Cc1ccccc1)NC(=O)[C@@H](Cc1ccccc1)NC(=O)[C@@H](Cc1c[nH]c2ccccc12)NC(=O)[C@@H](N)Cc1c[nH]cn1)C(N)=O` (H-H[dW][dF]F[dF]K-NH2), the half-maximal inhibitory concentration (IC50) in the data set on Candida albicans [1] was 6.8 µM.

By MFC is commonly meant the smallest concentration meeting the test's criterion for killing the fungus. A word on the MIC: it is the smallest concentration in the dilution series that meets the test's criterion for growth inhibition. As to `Cc1ccc(C[C@H](NC(=O)[C@@H](Cc2ccccc2)NC(=O)[C@@H](Cc2c[nH]c3ccccc23)NC(=O)[C@@H](N)CCCN)C(=O)N[C@H](Cc2ccccc2)C(=O)N[C@@H](Cc2ccc(N)cc2)C(N)=O)cc1` (H-[Orn][dW][dF][Phe(4-Me)][dF][Phe(4-NH2)]-NH2), the result in the data set on Lipid bilayer [2], in the data set with Cryptococcus neoformans [3], with Cryptococcus neoformans [6] and with Cryptococcus neoformans [13] was Active. Moreover, the Activity entry with Vero and with Lipid bilayer [5] was “Non-Toxic” each time. Moreover, the 50% inhibitory concentration (IC50) result is “Not Active” in the data set with Nakaseomyces glabratus; greater than 20 µg/mL in the data set with Staphylococcus aureus [4]; “Not Active” in the data set on Candida albicans [7]; 19.5 µg/mL (≈ 20.9 µM) in the data set with Escherichia coli [8]; “Not Active” with Aspergillus fumigatus; “Not Active” in the data set on Pseudomonas aeruginosa. Moreover, the IC50 with Staphylococcus aureus [9] is greater than 20 µg/mL; in [10] it was “Not Active”; with Pichia kudriavzevii [11], “Not Active”; in the data set with Cryptococcus neoformans [14], 4.73 µg/mL (≈ 5.06 µM). The compound also yielded a minimal fungicidal concentration (MFC) against Cryptococcus neoformans [12] of 5 µg/mL (≈ 5.35 µM). The compound also displayed an MIC in the data set with Cryptococcus neoformans [14] of 5 µg/mL (≈ 5.35 µM).

The term MBC denotes the lowest tested concentration that kills the bacteria rather than only halting them. As to `Cc1ccc(C[C@H](NC(=O)[C@@H](Cc2ccccc2)NC(=O)[C@@H](Cc2c[nH]c3ccccc23)NC(=O)[C@@H](N)CCCN)C(=O)N[C@H](Cc2ccccc2)C(=O)N[C@H](CCCCN)C(N)=O)cc1` (H-[Orn][dW][dF][Phe(4-Me)][dF][dK]-NH2), the MFC stood at 20 µg/mL (≈ 22.2 µM) against Pichia kudriavzevii [15] and 0.63 µg/mL (≈ 0.699 µM) with Cryptococcus neoformans [12]. Besides, the result in the data set with Lipid bilayer [2], in the data set on Lipid bilayer [16], with Cryptococcus neoformans [17], with Cryptococcus neoformans [18] and in the data set on Lipid bilayer [20] was Active. Moreover, the Activity entry in the data set with Vero, in the data set on Lipid bilayer [5] and in the data set on Lipid bilayer [22] was “Non-Toxic” throughout. Moreover, the half-maximal inhibitory concentration (IC50) entry in the data set on Nakaseomyces glabratus was “Not Active”; with Staphylococcus aureus [4], greater than 20 µg/mL; in the data set with Candida albicans [7], “Not Active”; in the data set on Escherichia coli [8], 8.2 µg/mL (≈ 9.1 µM); in the data set on Aspergillus fumigatus, “Not Active”; with Pseudomonas aeruginosa (Pseudomonas aeruginosa, ATCC 27853, read-out: IC50), 20 µg/mL (≈ 22.2 µM). Moreover, the 50% inhibitory concentration (IC50) in the data set on Staphylococcus aureus [9] is greater than 20 µg/mL; in data set [10], “Not Active”; in the data set with Pichia kudriavzevii [11] (Pichia kudriavzevii, ATCC 6258, read-out: IC50) it was 12.1 µg/mL (≈ 13.4 µM); with Cryptococcus neoformans [14], 0.4 µg/mL (≈ 0.444 µM). The minimal inhibitory concentration (MIC) against Escherichia coli [8] was 20 µg/mL (≈ 22.2 µM); in the data set on Pichia kudriavzevii [11] (Pichia kudriavzevii, ATCC 6258) it was 20 µg/mL (≈ 22.2 µM); with Cryptococcus neoformans [14], 0.63 µg/mL (≈ 0.699 µM). The MBC with Escherichia coli [19] is 20 µg/mL (≈ 22.2 µM). Moreover, the Stability entry in data set [21] is reported as “Stable”. In addition, the selectivity ratio in [23] lay in the range of 21 to 25.
